# According to patent US20260191858A1, “COMBINATION THERAPIES” (Kallyope, Inc., priority 2022, published 2026):
# Molecular target: T1, human GPR119 (hGPR119) (Homo sapiens, UniProt Q8TDV5)
# T1 construct: expressed in transfected cells; host or cells: CHO-K1
# T1 sequence (Q8TDV5 1-335): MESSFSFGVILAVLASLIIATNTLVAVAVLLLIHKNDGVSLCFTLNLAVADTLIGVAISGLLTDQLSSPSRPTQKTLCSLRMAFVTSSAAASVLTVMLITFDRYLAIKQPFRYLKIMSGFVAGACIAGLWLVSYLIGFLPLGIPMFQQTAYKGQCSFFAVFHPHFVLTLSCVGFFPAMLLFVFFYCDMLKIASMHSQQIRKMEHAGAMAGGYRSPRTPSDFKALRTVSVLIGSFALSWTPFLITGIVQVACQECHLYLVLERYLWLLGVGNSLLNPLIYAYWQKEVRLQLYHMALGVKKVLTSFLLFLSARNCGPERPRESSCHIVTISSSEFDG
# Assay: cAMP accumulation assay in CHO-K1 cells stably expressing hGPR119
# Assay type: cell-based
# Settings: cAMP HTRF, 60 minutes
# Protocol: CHO-K1 cells stably expressing human GPR119 (hGPR119) were prepared by transfection of a GPR119-carrying plasmid using Lipofectamine 2000 (following manufacturer instructions). A stable cell line was established using the limiting dilution method with geneticine selection. Assay-ready frozen (ARF) cells were prepared and used throughout the study.
# The assay was performed in a 384-well plate format using the CAMP Gs dynamic assay kit from Cisbio. ARF cells expressing hGPR119 were thawed, washed and then resuspended in CAMP stimulation buffer at a cell density of 1.1×10^6 cells/mL. Cells were plated at a density of ~10,000 cells/well (9 μL/well). Dose response curves for the tested compounds were prepared in a cAMP stimulation buffer, containing 0.1% Tween 80 at 4 fold the final concentration. The compounds were then transferred to the cell plates using BRAVO (3 μL/well) and the plates were incubated for 60 minutes at 37° C./5% CO2. Detection buffer (10 μL, prepared as described in the CAMP Gs dynamic kit) were added to each well, and the plates were incubated at ambient temperature for 1 hr.
# RT-FRET was measured using a ClarioSTAR plate reader, calculating the ratio between emissions at 665 nm and 620 nm (HTRF ratio). The HTRF ratio for positive (Max) and negative (Min) controls were used to normalize HTRF data and generate values for % activity. EC50 and Max activity values were determined using a standard 4-parameter fit.
row,SMILES,EC50 [µM]
1,"CCCc1cnc(N2CCC(CCCOc3ccc(CC(=O)N4CC(CNCCNC(=O)NC(CO)(CO)CO)C4)c(F)c3)CC2)nc1 [Compound A43, 1-(1,3-dihydroxy-2-(hydroxymethyl)propan-2-yl)-3-(2-(((1-(2-(2-fluoro-4-(3-(1-(5-propylpyrimidin-2-yl)piperidin-4-yl)propoxy)phenyl)acetyl)azetidin-3-yl)methyl)amino)ethyl)urea]",0.1 to 1
2,"CCCc1cnc(N2CCC(CCCOc3ccc(CC(=O)N4CC(CNC[C@H](O)[C@@H](O)[C@H](O)[C@H](O)CO)C4)c(F)c3)CC2)nc1 [Compound A44, 2-(2-fluoro-4-(3-(1-(5-propylpyrimidin-2-yl)piperidin-4-yl)propoxy)phenyl)-1-(3-((((2S,3R,4R,5R)-2,3,4,5,6-pentahydroxyhexyl)amino)methyl)azetidin-1-yl)ethan-1-one]",0.1 to 1
3,"CCCc1cnc(N2CCC(CCCOc3cc(F)c(CC(=O)N4CC(CNCC(O)(CO)CO)C4)c(F)c3)CC2)nc1 [Compound A45, 2-(2,6-difluoro-4-(3-(1-(5-propylpyrimidin-2-yl)piperidin-4-yl)propoxy)phenyl)-1-(3-(((2,3-dihydroxy-2-(hydroxymethyl)propyl)amino)methyl)azetidin-1-yl)ethan-1-one]",≤ 0.1
4,"CCCc1cnc(N2CCC(CCCOc3cc(F)c(CC(=O)N4CC(CNC(CO)(CO)CO)C4)c(F)c3)CC2)nc1 [Compound A46, 2-(2,6-difluoro-4-(3-(1-(5-propylpyrimidin-2-yl)piperidin-4-yl)propoxy)phenyl)-1-(3-(((1,3-dihydroxy-2-(hydroxymethyl)propan-2-yl)amino)methyl)azetidin-1-yl)ethan-1-one]",≤ 0.1
5,"CCCc1cnc(N2CCC(CCCOc3cc(F)c(CC(=O)N4CC(CNCCNC(=O)NC(CO)(CO)CO)C4)c(F)c3)CC2)nc1 [Compound A47, 1-(2-(((1-(2-(2,6-difluoro-4-(3-(1-(5-propylpyrimidin-2-yl)piperidin-4-yl)propoxy)phenyl)acetyl)azetidin-3-yl)methyl)amino)ethyl)-3-(1,3-dihydroxy-2-(hydroxymethyl)propan-2-yl)urea]",0.1 to 1
6,"CCCc1cnc(N2CCC(CCCOc3cc(F)c(CC(=O)N4CC(CNC[C@H](O)[C@@H](O)[C@H](O)[C@H](O)CO)C4)c(F)c3)CC2)nc1 [Compound A48, 2-(2,6-difluoro-4-(3-(1-(5-propylpyrimidin-2-yl)piperidin-4-yl)propoxy)phenyl)-1-(3-((((2S,3R,4R,5R)-2,3,4,5,6-pentahydroxyhexyl)amino)methyl)azetidin-1-yl)ethan-1-one]",≤ 0.1
7,"COCc1cnc(N2CCC(CCCOc3ccc(CC(=O)N4CC(CNCC[C@@H](O)C[C@@H](O)CC(=O)O)C4)c(F)c3)CC2)nc1 [Compound A52, (3R,5R)-7-[[1-[2-[2-fluoro-4-[3-[1-[5-(methoxymethyl)pyrimidin-2-yl]-4-piperidyl]propoxy]phenyl]acetyl]azetidin-3-yl]methylamino]-3,5-dihydroxy-heptanoic acid]",0.1 to 1
8,"COCc1cnc(N2CCC(CCCOc3ccc(CC(=O)N4CC(CNC[C@H](O)[C@@H](O)[C@H](O)[C@H](O)CO)C4)c(F)c3)CC2)nc1 [Compound A53, 2-[2-fluoro-4-[3-[1-[5-(methoxymethyl)pyrimidin-2-yl]-4-piperidyl]propoxy]phenyl]-1-[3-[[[(2S,3R,4R,5R)-2,3,4,5,6-pentahydroxyhexyl]amino]methyl]azetidin-1-yl]ethanone]",0.1 to 1
9,"COC(=O)c1cnc(N2CCC(CCCOc3ccc(CC(=O)N4CC(CNC[C@H](O)[C@@H](O)[C@H](O)[C@H](O)CO)C4)c(F)c3)CC2)nc1 [Compound A54, methyl 2-[4-[3-[3-fluoro-4-[2-oxo-2-[3-[[[(2S,3R,4R,5R)-2,3,4,5,6-pentahydroxyhexyl]amino]methyl]azetidin-1-yl]ethyl]phenoxy]propyl]-1-piperidyl]pyrimidine-5-carboxylate]",0.1 to 1
10,"O=C(Cc1ccc(OCCCC2CCN(c3ncc(CO)cn3)CC2)cc1F)N1CC(CNC[C@H](O)[C@@H](O)[C@H](O)[C@H](O)CO)C1 [Compound A55, 2-[2-fluoro-4-[3-[1-[5-(hydroxymethyl)pyrimidin-2-yl]-4-piperidyl]propoxy]phenyl]-1-[3-[[[(2S,3R,4R,5R)-2,3,4,5,6-pentahydroxyhexyl]amino]methyl]azetidin-1-yl]ethanone]",1 to 10
11,COCc1cnc(N2CCC(CCCOc3cc(F)c(CC(=O)N4CC(CNC[C@H](O)[C@@H](O)[C@H](O)[C@H](O)CO)C4)c(F)c3)CC2)nc1 [Compound A56],0.1 to 1
12,"CCOc1cnc(N2CCC(CCCOc3ccc(CC(=O)N4CC(CC(=O)NCC(O)(CO)CO)C4)c(F)c3)CC2)nc1 [Compound A57, N-[2,3-dihydroxy-2-(hydroxymethyl)propyl]-2-[1-[2-[4-[3-[1-(5-ethoxypyrimidin-2-yl)-4-piperidyl]propoxy]-2-fluoro-phenyl]acetyl]azetidin-3-yl]acetamide]",≤ 0.1
13,"CCOc1cnc(N2CCC(CCCOc3cc(F)c(CC(=O)N4CC(CNC[C@H](O)[C@@H](O)[C@H](O)[C@H](O)CO)C4)c(F)c3)CC2)nc1 [Compound A58, 2-[4-[3-[1-(5-ethoxypyrimidin-2-yl)-4-piperidyl]propoxy]-2,6-difluoro-phenyl]-1-[3-[[[(2S,3R,4R,5R)-2,3,4,5,6-pentahydroxyhexyl]amino]methyl]azetidin-1-yl]ethanone]",≤ 0.1
14,"O=C(Cc1ccc(OCCCC2CCN(c3ncc(Cl)cn3)CC2)cc1F)N1CC(CCNC[C@H](O)[C@H](O)[C@H](O)CO)C1 [Compound A59, 2-[4-[3-[1-(5-chloropyrimidin-2-yl)-4-piperidyl]propoxy]-2-fluoro-phenyl]-1-[3-[2-[[(2S,3S,4R)-2,3,4,5-tetrahydroxypentyl]amino]ethyl]azetidin-1-yl]ethanone]",≤ 0.1
15,"O=C(Cc1ccc(OCCCC2CCN(c3ncc(Cl)cn3)CC2)cc1F)N1CC(CNC[C@H](O)[C@H](O)[C@H](O)CO)C1 [Compound A60, 2-[4-[3-[1-(5-chloropyrimidin-2-yl)-4-piperidyl]propoxy]-2-fluoro-phenyl]-1-[3-[[[(2S,3S,4R)-2,3,4,5-tetrahydroxypentyl]amino]methyl]azetidin-1-yl]ethanone]",≤ 0.1
16,"O=C(Cc1ccc(OCCCC2CCN(c3ncc(Cl)cn3)CC2)cc1F)N1CC(CNC[C@H](O)[C@@H](O)[C@H](O)CO)C1 [Compound A61, 2-[4-[3-[1-(5-chloropyrimidin-2-yl)-4-piperidyl]propoxy]-2-fluoro-phenyl]-1-[3-[[[(2S,3R,4R)-2,3,4,5-tetrahydroxypentyl]amino]methyl]azetidin-1-yl]ethanone]",≤ 0.1
17,"O=C(Cc1ccc(OCCCC2CCN(c3ncc(Cl)cn3)CC2)cc1F)N1CC(CNC[C@@H](O)[C@H](O)[C@H](O)CO)C1 [Compound A62, 2-[4-[3-[1-(5-chloropyrimidin-2-yl)-4-piperidyl]propoxy]-2-fluoro-phenyl]-1-[3-[[[(2R,3S,4R)-2,3,4,5-tetrahydroxypentyl]amino]methyl]azetidin-1-yl]ethanone]",≤ 0.1
18,"O=C(NCCS(=O)(=O)O)C1CN(C(=O)Cc2ccc(OCCCC3CCN(c4ncc(Cl)cn4)CC3)cc2F)C1 [Compound A63, 2-[[1-[2-[4-[3-[1-(5-chloropyrimidin-2-yl)-4-piperidyl]propoxy]-2-fluoro-phenyl]acetyl]azetidine-3-carbonyl]amino]ethanesulfonic acid]",0.1 to 1
19,"O=C(NCCCS(=O)(=O)O)C1CN(C(=O)Cc2ccc(OCCCC3CCN(c4ncc(Cl)cn4)CC3)cc2F)C1 [Compound A64, 3-[[1-[2-[4-[3-[1-(5-chloropyrimidin-2-yl)-4-piperidyl]propoxy]-2-fluoro-phenyl]acetyl]azetidine-3-carbonyl]amino]propane-1-sulfonic acid]",≤ 0.1
20,"O=C(NCCCCCS(=O)(=O)O)C1CN(C(=O)Cc2ccc(OCCCC3CCN(c4ncc(Cl)cn4)CC3)cc2F)C1 [Compound A66, 5-[[1-[2-[4-[3-[1-(5-chloropyrimidin-2-yl)-4-piperidyl]propoxy]-2-fluoro-phenyl]acetyl]azetidine-3-carbonyl]amino]pentane-1-sulfonic acid]",0.1 to 1
21,"O=C(NCCCCCCS(=O)(=O)O)C1CN(C(=O)Cc2ccc(OCCCC3CCN(c4ncc(Cl)cn4)CC3)cc2F)C1 [Compound A67, 6-[[1-[2-[4-[3-[1-(5-chloropyrimidin-2-yl)-4-piperidyl]propoxy]-2-fluoro-phenyl]acetyl]azetidine-3-carbonyl]amino]hexane-1-sulfonic acid]",0.1 to 1
22,"O=C(CC1CN(C(=O)Cc2ccc(OCCCC3CCN(c4ncc(Cl)cn4)CC3)cc2F)C1)NCCS(=O)(=O)O [Compound A68, 2-[[2-[1-[2-[4-[3-[1-(5-chloropyrimidin-2-yl)-4-piperidyl]propoxy]-2-fluoro-phenyl]acetyl]azetidin-3-yl]acetyl]amino]ethanesulfonic acid]",0.1 to 1
